# In ChEMBL document CHEMBL5303573, “Mapping human microbiome drug metabolism by gut bacteria and their genes” (Nature, 2019):
# Columns and labels:
# [1] = The drug is tested on Eubacterium ventriosum strain: ATCC27560 for biotransformation. The drug concentrations were measured before and after a 12-h incubation by liquid-chromatography-coupled mass spectrometry (LC–MS); format: ADME; design: dose 2 uM, timepoint 0 vs 12 hours; conditions: 2 µM
# [2] = bacteroides fragilis, 12 h, 2 µM
# Description: The drug is tested on Bacteroides fragilis strain: NCTC 9343 for biotransformation. The drug concentrations were measured before and after a 12-h incubation by liquid-chromatography-coupled mass spectrometry (LC–MS)
# [3] = The drug is tested on Ruminococcus lactaris strain: ATCC29176 for biotransformation. The drug concentrations were measured before and after a 12-h incubation by liquid-chromatography-coupled mass spectrometry (LC–MS); conditions: 2 µM
# [4] = akkermansia muciniphila, 12 h, 2 µM
# Description: The drug is tested on Akkermansia muciniphila strain: ATCC BAA-835 for biotransformation. The drug concentrations were measured before and after a 12-h incubation by liquid-chromatography-coupled mass spectrometry (LC–MS)
# [5] = The drug is tested on Clostridium hathewayi strain: DSM13479 for biotransformation. The drug concentrations were measured before and after a 12-h incubation by liquid-chromatography-coupled mass spectrometry (LC–MS); conditions: hungatella hathewayi, 2 µM
# [6] = The drug is tested on Odoribacter splanchnicus strain: fecal isolate for biotransformation. The drug concentrations were measured before and after a 12-h incubation by liquid-chromatography-coupled mass spectrometry (LC–MS); conditions: 2 µM
# [7] = The drug is tested on Bacteroides sp. WH2 strain: WH2 for biotransformation. The drug concentrations were measured before and after a 12-h incubation by liquid-chromatography-coupled mass spectrometry (LC–MS); conditions: bacteroides sp. wh2, 12 h, 2 µM
# [8] = The drug is tested on Alistipes indistinctus strain: DSM22520 for biotransformation. The drug concentrations were measured before and after a 12-h incubation by liquid-chromatography-coupled mass spectrometry (LC–MS); conditions: 2 µM
# [9] = target: T1, SGNH hydrolase-type esterase domain-containing protein (Phocaeicola dorei, UniProt B6W1J1); assay: (§1) The drug is tested on Bacteroides dorei strain: DSM17855 for biotransformation. The drug concentrations were measured before and after a 12-h incubation by liquid-chromatography-coupled mass spectrometry (LC–MS); format: ADME; design: dose 2 uM; conditions: 2 µM
# T1 sequence (B6W1J1 whole entry): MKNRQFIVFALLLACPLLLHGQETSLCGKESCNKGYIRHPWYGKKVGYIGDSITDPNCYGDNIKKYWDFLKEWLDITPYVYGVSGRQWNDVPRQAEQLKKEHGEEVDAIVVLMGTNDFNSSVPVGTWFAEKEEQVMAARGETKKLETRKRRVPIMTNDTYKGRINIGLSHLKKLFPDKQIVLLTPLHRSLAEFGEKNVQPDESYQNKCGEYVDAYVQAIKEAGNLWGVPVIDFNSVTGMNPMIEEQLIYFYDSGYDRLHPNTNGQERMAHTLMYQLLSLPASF
# [10] = target: T2, Nitroreductase domain-containing protein (Phocaeicola dorei, UniProt B6VU18); assay: as §1; format: ADME; design: dose 2 uM; conditions: 2 µM
# T2 sequence (B6VU18 whole entry): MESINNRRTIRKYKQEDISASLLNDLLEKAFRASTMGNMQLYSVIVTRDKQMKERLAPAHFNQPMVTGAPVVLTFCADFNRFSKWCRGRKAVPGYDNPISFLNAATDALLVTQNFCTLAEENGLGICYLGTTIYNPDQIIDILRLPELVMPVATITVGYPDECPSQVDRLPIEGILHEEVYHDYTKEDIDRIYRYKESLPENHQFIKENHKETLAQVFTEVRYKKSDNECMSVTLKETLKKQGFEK
# [11] = target: T3, SGNH hydrolase-type esterase domain-containing protein (Phocaeicola dorei, UniProt B6VTE7); assay: as §1; format: ADME; design: dose 2 uM; conditions: 2 µM
# T3 sequence (B6VTE7 whole entry): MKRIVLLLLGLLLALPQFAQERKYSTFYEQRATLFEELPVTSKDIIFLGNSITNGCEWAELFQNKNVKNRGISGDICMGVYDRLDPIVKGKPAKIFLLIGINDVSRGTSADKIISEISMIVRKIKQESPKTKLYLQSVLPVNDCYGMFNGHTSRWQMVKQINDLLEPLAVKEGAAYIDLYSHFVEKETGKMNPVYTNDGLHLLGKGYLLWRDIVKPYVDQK
# [12] = target: T4, Acyltransferase 3 domain-containing protein (Phocaeicola dorei, UniProt B6W2J3); assay: as §1; format: ADME; design: dose 2 uM; conditions: 2 µM
# T4 sequence (B6W2J3 whole entry): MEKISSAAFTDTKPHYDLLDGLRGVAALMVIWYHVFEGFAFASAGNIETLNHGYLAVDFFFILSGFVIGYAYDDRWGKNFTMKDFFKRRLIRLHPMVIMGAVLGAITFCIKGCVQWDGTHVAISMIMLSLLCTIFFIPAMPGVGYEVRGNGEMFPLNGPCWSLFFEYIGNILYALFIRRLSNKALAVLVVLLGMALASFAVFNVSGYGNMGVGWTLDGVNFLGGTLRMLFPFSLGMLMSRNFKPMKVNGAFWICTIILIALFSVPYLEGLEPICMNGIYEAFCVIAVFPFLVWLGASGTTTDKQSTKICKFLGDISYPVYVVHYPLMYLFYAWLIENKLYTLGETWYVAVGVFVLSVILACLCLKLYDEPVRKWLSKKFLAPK
# [13] = target: T5, Esterase (Phocaeicola dorei, UniProt B6W2J6); assay: as §1; format: ADME; design: dose 2 uM; conditions: 2 µM
# T5 sequence (B6W2J6 whole entry): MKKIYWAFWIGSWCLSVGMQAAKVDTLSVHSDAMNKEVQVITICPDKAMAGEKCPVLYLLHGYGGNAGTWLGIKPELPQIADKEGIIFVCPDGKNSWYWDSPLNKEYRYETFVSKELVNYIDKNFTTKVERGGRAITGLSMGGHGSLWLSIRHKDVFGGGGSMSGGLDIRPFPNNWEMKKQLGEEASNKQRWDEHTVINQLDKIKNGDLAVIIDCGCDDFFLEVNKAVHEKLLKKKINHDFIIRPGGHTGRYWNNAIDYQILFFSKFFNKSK
# [14] = target: T6, SGNH hydrolase-type esterase domain-containing protein (Phocaeicola dorei, UniProt B6W293); assay: as §1; format: ADME; design: dose 2 uM; conditions: 2 µM
# T6 sequence (B6W293 whole entry): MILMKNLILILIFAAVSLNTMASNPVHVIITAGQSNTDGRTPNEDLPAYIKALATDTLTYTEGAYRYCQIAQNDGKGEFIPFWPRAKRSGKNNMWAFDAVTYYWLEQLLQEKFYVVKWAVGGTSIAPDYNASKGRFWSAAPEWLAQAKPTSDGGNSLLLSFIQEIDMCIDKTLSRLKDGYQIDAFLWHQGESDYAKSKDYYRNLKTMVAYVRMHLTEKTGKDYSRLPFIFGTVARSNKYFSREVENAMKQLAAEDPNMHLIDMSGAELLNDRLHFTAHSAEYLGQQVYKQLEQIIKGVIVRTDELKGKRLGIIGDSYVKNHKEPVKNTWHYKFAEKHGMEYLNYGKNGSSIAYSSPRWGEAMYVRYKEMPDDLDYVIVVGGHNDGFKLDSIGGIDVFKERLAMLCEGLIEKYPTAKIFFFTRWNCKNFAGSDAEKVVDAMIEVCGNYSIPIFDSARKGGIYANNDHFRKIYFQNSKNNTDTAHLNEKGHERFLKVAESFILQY
# [15] = target: T7, Nitroreductase domain-containing protein (Phocaeicola dorei, UniProt B6W3P3); assay: as §1; format: ADME; design: dose 2 uM; conditions: 2 µM
# T7 sequence (B6W3P3 whole entry): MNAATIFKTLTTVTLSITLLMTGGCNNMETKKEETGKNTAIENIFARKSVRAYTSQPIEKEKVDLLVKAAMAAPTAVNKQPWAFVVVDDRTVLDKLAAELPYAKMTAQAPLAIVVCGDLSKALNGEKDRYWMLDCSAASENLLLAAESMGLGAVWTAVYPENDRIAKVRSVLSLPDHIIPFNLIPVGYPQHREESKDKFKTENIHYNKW
Structure (SMILES),Bacterial Biotransformation [1],Bacterial Biotransformation [2],Bacterial Biotransformation [3],Bacterial Biotransformation [4],Bacterial Biotransformation [5],Bacterial Biotransformation [6],Bacterial Biotransformation [7],Bacterial Biotransformation [8],Bacterial Biotransformation [9],Bacterial Biotransformation [10],Bacterial Biotransformation [11],Bacterial Biotransformation [12],Bacterial Biotransformation [13],Bacterial Biotransformation [14],Bacterial Biotransformation [15]
CC(C)NCC(O)COc1ccc(CCOCC2CC2)cc1 (stereo unspecified) [BETAXOLOL],Compound NOT metabolized,Compound NOT metabolized,Compound NOT metabolized,Compound NOT metabolized,Compound NOT metabolized,Compound NOT metabolized,Compound NOT metabolized,Compound NOT metabolized,–,–,–,–,–,–,–
O=C(O)c1cc(/N=N/c2ccc(S(=O)(=O)Nc3ccccn3)cc2)ccc1O [SULFASALAZINE],Compound metabolized,Compound metabolized,Compound metabolized,Compound metabolized,–,Compound metabolized,Compound metabolized,Compound metabolized,Compound NOT metabolized,Compound NOT metabolized,Compound NOT metabolized,Compound NOT metabolized,Compound NOT metabolized,Compound NOT metabolized,Compound NOT metabolized
CCOC(=O)C1=C(C)NC(C)=C(C(=O)OC)C1c1cccc([N+](=O)[O-])c1 (stereo unspecified) [NITRENDIPINE],Compound metabolized,Compound metabolized,Compound metabolized,Compound metabolized,–,Compound metabolized,Compound metabolized,Compound metabolized,Compound NOT metabolized,Compound metabolized,Compound NOT metabolized,Compound NOT metabolized,Compound NOT metabolized,Compound NOT metabolized,Compound metabolized
COc1ccnc(C[S+]([O-])c2nc3ccc(OC(F)F)cc3[nH]2)c1OC (stereo unspecified) [PANTOPRAZOLE],Compound metabolized,Compound metabolized,Compound metabolized,Compound metabolized,–,Compound metabolized,Compound metabolized,Compound metabolized,Compound metabolized,Compound NOT metabolized,Compound metabolized,Compound NOT metabolized,Compound metabolized,Compound metabolized,Compound NOT metabolized
Nc1ccc(/N=N/c2ccccc2)c(N)n1 [PHENAZOPYRIDINE],Compound metabolized,Compound metabolized,Compound metabolized,–,–,Compound metabolized,Compound metabolized,Compound metabolized,Compound NOT metabolized,Compound NOT metabolized,Compound NOT metabolized,Compound NOT metabolized,Compound NOT metabolized,Compound NOT metabolized,Compound NOT metabolized
CC(NC(C)(C)C)C(=O)c1cccc(Cl)c1 (stereo unspecified) [BUPROPION],–,Compound NOT metabolized,Compound NOT metabolized,Compound NOT metabolized,Compound NOT metabolized,Compound metabolized,Compound NOT metabolized,Compound NOT metabolized,–,–,–,–,–,–,–
COc1ccccc1OCCNCC(O)COc1cccc2[nH]c3ccccc3c12 (stereo unspecified) [CARVEDILOL],Compound metabolized,Compound metabolized,Compound metabolized,Compound metabolized,Compound metabolized,Compound NOT metabolized,Compound metabolized,Compound metabolized,–,–,–,–,–,–,–
CC(=O)OCC(=O)[C@@]12N=C(C)O[C@@H]1C[C@H]1[C@@H]3CCC4=CC(=O)C=C[C@]4(C)[C@H]3[C@@H](O)C[C@@]12C [DEFLAZACORT],Compound metabolized,Compound metabolized,Compound metabolized,Compound metabolized,–,Compound metabolized,Compound metabolized,Compound metabolized,–,Compound NOT metabolized,–,Compound NOT metabolized,Compound NOT metabolized,–,Compound NOT metabolized
CCOc1cc(CC(=O)N[C@@H](CC(C)C)c2ccccc2N2CCCCC2)ccc1C(=O)O [REPAGLINIDE],Compound NOT metabolized,–,Compound NOT metabolized,Compound NOT metabolized,Compound NOT metabolized,Compound NOT metabolized,Compound NOT metabolized,Compound NOT metabolized,–,–,–,–,–,–,–
